{
  "source": "patent US20030162191A1",
  "about": "“Enzymes and uses relating thereto” (priority 2000, published 2003)",
  "key": {"[1]": {"target": "T1, pH7 nSMase (Homo sapiens, UniProt Q92485)", "T1 construct": "For pH7 nSMase assays, membranes from Jurkat cells (human T-cell lymphoma) were used; endogenous in cells; host or cells: Jurkat (human T-cell lymphoma) membranes, Triton X-100 eluate", "T1 sequence (Q92485 19-455)": "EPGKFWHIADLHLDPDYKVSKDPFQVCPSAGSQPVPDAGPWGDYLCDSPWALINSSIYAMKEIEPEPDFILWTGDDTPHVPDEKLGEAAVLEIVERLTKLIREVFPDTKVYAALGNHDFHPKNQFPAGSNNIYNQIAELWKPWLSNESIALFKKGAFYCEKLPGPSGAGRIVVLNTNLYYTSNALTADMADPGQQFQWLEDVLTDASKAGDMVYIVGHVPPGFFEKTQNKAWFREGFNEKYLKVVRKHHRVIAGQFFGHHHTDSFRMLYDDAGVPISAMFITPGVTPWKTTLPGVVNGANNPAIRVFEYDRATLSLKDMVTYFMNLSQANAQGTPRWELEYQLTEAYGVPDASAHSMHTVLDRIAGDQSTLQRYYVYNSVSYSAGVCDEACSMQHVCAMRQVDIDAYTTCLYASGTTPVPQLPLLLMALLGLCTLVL", "assay": "pH7 nSMase assay in the presence of C11AG (membranes from Jurkat cells, Tris pH6.5)", "type": "biochemical", "conditions": "pH7 nSMase versus pH8 nSMase", "method": "SMase activities were determined in the presence of 0, 1, 10, 100 or 1000 μg/ml C11AG. C11AG-acetate was used as a stock solution of 10 mg/ml in water.\nFor pH7 nSMase assays, membranes from Jurkat cells (human T-cell lymphoma) were used.\nFrom each preparation 5 μg of protein were used for (1) a pH7 nSMase assay (in 50 μl 50 mM Tris pH6.5, 5 mM MgCl2, 1 mM NaF, 1 mM NaVO3, 0.1% Triton X 100, 20 nCi ^14C sphingomyelin), (2) a pH8 nSMase assay (in 50 μl 50 mM Tris pH8.5, 5 mM MgCl2, 1 mM NaF, 1 mM NaVO3, 0.1% Triton X 100, 20 nCi ^14C sphingomyelin) and (3) an acidic SMase assay (in 50 μl 50 mM NaH2PO4 pH5.0, 5 mM MgCl2, 1 mM NaF, 1 mM NaVO3, 0.1% Triton X 100, 20 nCi ^14C sphingomyelin).\nAfter 30 minutes phosphorylcholine (PCH) was extracted by the addition of 2 volumes methanol/chloroform (2/1). PCH counts were determined in an aliquot of 10 μl after separation on TLC plates (Merck 60, F254, running solvent: 0.9% NaCl/methanol/NH4OH (50/70/5, V/V/V) in a Digital Autoradiograph. PCH counts of the uninhibited reaction were set 100% enzyme activity. Each assay was done in quadruplicate."}, "[2]": {"system": "Human T-cell lymphoma cells (Jurkat)", "assay": "Stimulation of anti-APO-1 (anti-CD95) induced apoptosis in Jurkat cells", "type": "cell-based", "conditions": "C11AG at 1 μg/ml, 24 hours, 37° C., FIG. 7", "method": "Human T-cell lymphoma cells (Jurkat) were seeded in 96-well plates at a density of 10^5 cells per ml. An antibody directed against CD95 (anti-APO-1) was added at various concentrations with and without C11AG at 1 μg/ml. After incubation at 37° C. for 24 hours, cell numbers were determined afer vital staining. By Nicoleti staining it was confirmed that dead cells had died due to apoptosis. All assays were done in triplicate."}, "[3]": {"system": "cells with or lacking pH8 nSMase", "assay": "Sensitivity of cells to C11AG according to pH8 nSMase expression", "type": "cell-based"}},
  "data": [
    {"smiles": "CCCCCCCCCCC=NNC(=N)N", "note": "[C11AG, 1-(undecylidene-amino)guanidine]", "values": [
      {"measurement": "fold more active on pH7 nSMase than on pH8 nSMase", "setting": "[1]", "value": "200-1000 fold"},
      {"measurement": "induction of apoptosis by anti-APO-1", "setting": "[2]", "value": "stimulated induction of apoptosis"},
      {"measurement": "response to C11AG of cells which have both pH7 nSMase and pH8 nSMase", "setting": "[3]; cells with both pH7 nSMase and pH8 nSMase", "value": "show resistance"},
      {"measurement": "response to C11AG of cells lacking pH8 nSMase", "setting": "[3]; solid tumour cells, T cell lymphoma cells, activated or autoreactive T cells", "value": "are sensitive"}
    ]}
  ]
}
